Experimental data as given in article PMC8565777, “The chitinolytic activity of the Curtobacterium sp. isolated from field-grown soybean and analysis of its genome sequence” (PLoS ONE, 2021).

Tested on: T1, GH18 chitinase from Curtobacterium sp. GD1 (carbohydrate binding protein, CBP)
T1 construct: native secreted enzyme, partially purified from chitin-induced culture supernatant (two major bands); 429 aa precursor, predicted 31 aa signal peptide removed; genome has 3 GH18 genes
Assay: colorimetric p-nitrophenol release at […] nm, Lineweaver-Burk
Type: biochemical
Settings: 100 mmol/L sodium phosphate pH 7.0, 37 °C, partially purified enzyme; substrate range 3-90 mmol/L; substrate of the Km not restated beside the value; unit printed as mmol (mmol/L presumably meant)

CC(=O)N[C@H]1[C@H](Oc2ccc([N+](=O)[O-])cc2)O[C@H](CO)[C@@H](O[C@@H]2O[C@H](CO)[C@@H](O[C@@H]3O[C@H](CO)[C@@H](O)[C@H](O)[C@H]3NC(C)=O)[C@H](O)[C@H]2NC(C)=O)[C@@H]1O [p-nitrophenyl-β-D-N,N’,N”-triacetylchitotriose]
Km: 10 mmol
